Tests used:
Conditions in all cases: male, C57BL/6, mouse
BAAT = test: Biomarkers validation by q-pcr in precision cut liver slices: BAAT expression
Procedure: (§1) 23-weeks old male C57BL/6 mice were obtained from Harlan (Horst, The Netherlands). Animals were kept for 1 week at a housing temperature of 22°C and at a relative humidity of 30-70%. The lighting cycle was 12-h light and 12-h dark. At the age of 24 weeks animals were sacrificed by an overdose of isoflurane. The treatment protocol was approved by the Ethical Committee for Animal Experiments at Wageningen University.
(§2) Immediately after the animals were killed the liver was perfused with PBS and placed in ice-cold Krebs-Henseleit buffer (KHB) (pH 7.4, supplemented with 11 mM glucose). Liver tissue was transported to the laboratory within approximately 30 min and cylindrical liver cores were produced using a surgical biopsy punch with diameter of 5 mm (KAI, SynErgo Europe, Romania). Liver cores were placed in a Krumdieck tissue slicer (Alabama Research and Development, Munford, AL) filled with ice-cold KHB aerated with carbogen and supplemented with 11 mM glucose. Precesion cut liver slices (PCLS) with a diameter of 5 mm, a thickness of 0.2 mm and a weight of approximately 10 mg were prepared. Immediately after preparation, slices were transferred into culture plates filled with pre-warmed (37 degrees C) Williams E medium (WEM). Three liver slices were pre-cultured in one well of the 6-well plate filled with 4 ml of WEM for one hour with continuous shaking (70 rpm). Incubations were performed in an oxygen controlled incubator (Galaxy 48 R New Brunswick, Nijmegen, the Netherlands) at 80% of oxygen; 5% CO2 and the remaining gas volume was filled up to […] with N2. After one hour of pre-incubation, media were removed and replaced with fresh media containing test compounds or appropriate solvents. After incubations, samples were snap-frozen in liquid nitrogen and stored in -80 °C for further analysis. Samples dedicated to histology were stored in 4 % formaldehyde at room temperature.
(§3) PCLS were incubated at the same conditions as described above. Slices were exposed for 24 and 48 hours to one concentration of the tested compounds or controls. Concentrations used in the exposure experiments were preselected in the dose selection experiments for each drug individually. […] For the necrotic compounds: 1000 uM acetaminophen, 5 µM paraquat and 1000 uM isoniazid. Liver slices obtained from five mice were used in five toxic compound or control exposure experiments performed at the same time. Dose selection experiments and exposure experiments were performed at different days. Therefore, ATP, LDH, and protein assays were performed again for the exposure experiments to confirm that the selected doses did also not affect slice viability in these experiments.
(§4) In further studies, expression of ten candidate biomarkers in PCLS was analyzed by q-pcr using the Biorad CFX96 TM Real-Time Detection System (Bio-Rad, Veenendaal, The Netherlands) with the following cycling conditions: 15 min 95°C followed by 40 cycles of 15s 95 °C and 1 min 60 °C. Reactions were performed in 10 µl and contained 20 ng cDNA, 1x TaqMan PCR Master Mix (Applied Biosystems, Foster City, CA), and depending on the analysed gene, 250 nM probe and 900 nM primer (for actin b) or 1xTaqMan gene expression assay (for the remaining genes) (Applied Biosystems, foster City, CA).

Bcl2l11 = test: Biomarkers validation by q-pcr in precision cut liver slices: Bcl2l11 expression
Procedure: as §1, §2, §3, §4

Myo1e = test: Biomarkers validation by q-pcr in precision cut liver slices: Myo1e expression
Procedure: as §1, §2, §3, §4

KLF15 = test: Biomarkers validation by q-pcr in precision cut liver slices: KLF15 expression
Procedure: as §1, §2, §3, §4

Nme6 = test: Biomarkers validation by q-pcr in precision cut liver slices: Nme6 expression
Procedure: as §1, §2, §3, §4

PCLS = test: Cytotoxicity analysis - dose selection experiments (LDH, ATP, protein assay)
Procedure: as §1, §2, §3

SERPINE1 = test: Biomarkers validation by q-pcr in precision cut liver slices: SERPINE1 expression
Procedure: as §1, §2, §3, §4

ABCG8 = test: Biomarkers validation by q-pcr in precision cut liver slices: ABCG8 expression
Procedure: as §1, §2, §3, §4

Parp16 = test: Biomarkers validation by q-pcr in precision cut liver slices: Parp16 expression
Procedure: as §1, §2, §3, §4

ABCG5 = test: Biomarkers validation by q-pcr in precision cut liver slices: ABCG5 expression
Procedure: as §1, §2, §3, §4

Mras = test: Biomarkers validation by q-pcr in precision cut liver slices: Mras expression
Procedure: as §1, §2, §3, §4

With CC(=O)Nc1ccc(O)cc1 [APAP, acetaminophen] the “*fold change 1, gene expression level BAAT” value (BAAT) was -5,0, the “*fold change 2, gene expression level BAAT” value (BAAT) was -2,0 and the “*fold change 3, gene expression level BAAT” value (BAAT) was -1,4. The “*fold change 4, gene expression level BAAT” value (BAAT) was -2,8, the “*fold change 5, gene expression level BAAT” value (BAAT) was -1,5 and the “*fold change 1, gene expression level Bcl2111” value (Bcl2l11) was 1,9. The “*fold change 2, gene expression level Bcl2111” value (Bcl2l11) was 1,1, the “*fold change 3, gene expression level Bcl2111” value (Bcl2l11) was 2,0 and the “*fold change 4, gene expression level Bcl2111” value (Bcl2l11) was 2,4. The “*fold change 5, gene expression level Bcl2111” value (Bcl2l11) was 1,7, the “*fold change 1, gene expression level Myo 1e” value (Myo1e) was 1,1 and the “*fold change 2, gene expression level Myo 1e” value (Myo1e) was -1,2. The “*fold change 3, gene expression level Myo 1e” value (Myo1e) was 1,4, the “*fold change 4, gene expression level Myo 1e” value (Myo1e) was 1,4 and the “*fold change 5, gene expression level Myo 1e” value (Myo1e) was 1,4. The “*fold change 1, gene expression level KLF15” value (KLF15) was -1,5, the “*fold change 2, gene expression level KLF15” value (KLF15) was -1,2 and the “*fold change 3, gene expression level KLF15” value (KLF15) was -1,4. The “*fold change 4, gene expression level KLF15” value (KLF15) was -1,1, the “*fold change 5, gene expression level KLF15” value (KLF15) was 1,2 and the “*fold change 1, gene expression level Nme6” value (Nme6) was -1,2. The “*fold change 2, gene expression level Nme6” value (Nme6) was -1,2, the “*fold change 3, gene expression level Nme6” value (Nme6) was -1,1 and the “*fold change 4, gene expression level Nme6” value (Nme6) was -1,3. For the same compound, the “*fold change 5, gene expression level Nme6” value (Nme6) was 1,0, the “highest concentration that did not cause significant increase of toxicity” value (PCLS) was 1000 µM and the “*fold change 1, gene expression level SERPINE1” value (SERPINE1) was -1,6. For the same compound, the “*fold change 2, gene expression level SERPINE1” value (SERPINE1) was -1,4, the “*fold change 3, gene expression level SERPINE1” value (SERPINE1) was 1,2 and the “*fold change 4, gene expression level SERPINE1” value (SERPINE1) was -1,3. For the same compound, the “*fold change 5, gene expression level SERPINE1” value (SERPINE1) was 1,5, the “*fold change 1, gene expression level ABCG8” value (ABCG8) was -1,7 and the “*fold change 2, gene expression level ABCG8” value (ABCG8) was -1,2. The “*fold change 3, gene expression level ABCG8” value (ABCG8) was 1,4, the “*fold change 4, gene expression level ABCG8” value (ABCG8) was -1,1 and the “*fold change 5, gene expression level ABCG8” value (ABCG8) was 1,4. For the same compound, the “*fold change 1, gene expression level Parp 16” value (Parp16) was 1,4, the “*fold change 2, gene expression level Parp 16” value (Parp16) was -1,3 and the “*fold change 3, gene expression level Parp 16” value (Parp16) was 1,4. For the same compound, the “*fold change 4, gene expression level Parp 16” value (Parp16) was 1,5, the “*fold change 5, gene expression level Parp 16” value (Parp16) was 1,6 and the “*fold change 1, gene expression level ABCG5” value (ABCG5) was -2,1. For the same compound, the “*fold change 2, gene expression level ABCG5” value (ABCG5) was -1,3, the “*fold change 3, gene expression level ABCG5” value (ABCG5) was 1,4 and the “*fold change 4, gene expression level ABCG5” value (ABCG5) was -1,4. The “*fold change 5, gene expression level ABCG5” value (ABCG5) was 1,1, the “*fold change 1, gene expression level Mras” value (Mras) was 1,7 and the “*fold change 2, gene expression level Mras” value (Mras) was -1,0. The “*fold change 3, gene expression level Mras” value (Mras) was 1,3, the “*fold change 4, gene expression level Mras” value (Mras) was 1,2 and the “*fold change 5, gene expression level Mras” value (Mras) was 1,4.
With CN(C)CCCN1c2ccccc2Sc2ccc(Cl)cc21 [CPZ, chlorpromazine] the “*fold change 1, gene expression level BAAT” value (BAAT) was -2,3, the “*fold change 2, gene expression level BAAT” value (BAAT) was -3,3 and the “*fold change 3, gene expression level BAAT” value (BAAT) was -8,5. For the same compound, the “*fold change 4, gene expression level BAAT” value (BAAT) was -6,4, the “*fold change 5, gene expression level BAAT” value (BAAT) was 1,4 and the “*fold change 1, gene expression level Bcl2111” value (Bcl2l11) was -1,2. The “*fold change 2, gene expression level Bcl2111” value (Bcl2l11) was -1,4, the “*fold change 3, gene expression level Bcl2111” value (Bcl2l11) was -1,2 and the “*fold change 4, gene expression level Bcl2111” value (Bcl2l11) was -1,9. The “*fold change 5, gene expression level Bcl2111” value (Bcl2l11) was -2,3, the “*fold change 1, gene expression level Myo 1e” value (Myo1e) was -1,1 and the “*fold change 2, gene expression level Myo 1e” value (Myo1e) was -1,0. The “*fold change 3, gene expression level Myo 1e” value (Myo1e) was 1,1, the “*fold change 4, gene expression level Myo 1e” value (Myo1e) was 1,0 and the “*fold change 5, gene expression level Myo 1e” value (Myo1e) was -1,1. The “*fold change 1, gene expression level KLF15” value (KLF15) was -2,0, the “*fold change 2, gene expression level KLF15” value (KLF15) was -1,8 and the “*fold change 3, gene expression level KLF15” value (KLF15) was -3,2. For the same compound, the “*fold change 4, gene expression level KLF15” value (KLF15) was -1,8, the “*fold change 5, gene expression level KLF15” value (KLF15) was 1,6 and the “*fold change 1, gene expression level Nme6” value (Nme6) was 1,1. The “*fold change 2, gene expression level Nme6” value (Nme6) was 1,3, the “*fold change 3, gene expression level Nme6” value (Nme6) was 1,7 and the “*fold change 4, gene expression level Nme6” value (Nme6) was 1,3. For the same compound, the “*fold change 5, gene expression level Nme6” value (Nme6) was 1,2, the “highest concentration that did not cause significant increase of toxicity” value (PCLS) was 10 µM and the “*fold change 1, gene expression level SERPINE1” value (SERPINE1) was 2,9. The “*fold change 2, gene expression level SERPINE1” value (SERPINE1) was -1,4, the “*fold change 3, gene expression level SERPINE1” value (SERPINE1) was -4,7 and the “*fold change 4, gene expression level SERPINE1” value (SERPINE1) was -5,8. For the same compound, the “*fold change 5, gene expression level SERPINE1” value (SERPINE1) was -1,8, the “*fold change 1, gene expression level ABCG8” value (ABCG8) was -2,9 and the “*fold change 2, gene expression level ABCG8” value (ABCG8) was -2,1. The “*fold change 3, gene expression level ABCG8” value (ABCG8) was -5,4, the “*fold change 4, gene expression level ABCG8” value (ABCG8) was -4,5 and the “*fold change 5, gene expression level ABCG8” value (ABCG8) was -1,1. The “*fold change 1, gene expression level Parp 16” value (Parp16) was -1,1, the “*fold change 2, gene expression level Parp 16” value (Parp16) was -1,4 and the “*fold change 3, gene expression level Parp 16” value (Parp16) was -1,1. For the same compound, the “*fold change 4, gene expression level Parp 16” value (Parp16) was -1,4, the “*fold change 5, gene expression level Parp 16” value (Parp16) was -1,0 and the “*fold change 1, gene expression level ABCG5” value (ABCG5) was -4,2. The “*fold change 2, gene expression level ABCG5” value (ABCG5) was -2,9, the “*fold change 3, gene expression level ABCG5” value (ABCG5) was -6,7 and the “*fold change 4, gene expression level ABCG5” value (ABCG5) was -3,8. The “*fold change 5, gene expression level ABCG5” value (ABCG5) was -1,0, the “*fold change 1, gene expression level Mras” value (Mras) was 1,3 and the “*fold change 2, gene expression level Mras” value (Mras) was 2,0. The “*fold change 3, gene expression level Mras” value (Mras) was 2,6, the “*fold change 4, gene expression level Mras” value (Mras) was 1,4 and the “*fold change 5, gene expression level Mras” value (Mras) was 1,1.
